Experimental data reported in US20250230193A1, “CYCLIC COMPOUND HAVING SELECTIVE KRAS INHIBITORY EFFECT ON HRAS AND NRAS” (CHUGAI SEIYAKU KABUSHIKI KAISHA, priority 2022, published 2025).
Where a SMILES comes first, the peptide text is derived from it. Bridges are numbered along the chain shown (N, C = ends). [ ]: non-standard residue; d: D form. The star is where a group is joined. hPhe(3-Cl-4-CF3) = N[C@@H](CCc1ccc(C(F)(F)F)c(Cl)c1)C(=O)O; NPrPhe(4-CF3) = CCCN[C@@H](Cc1ccc(C(F)(F)F)cc1)C(=O)O; NMeGly(cPent) = CN[C@H](C(=O)O)C1CCCC1; Pro(4,4-F2) = O=C(O)[C@@H]1CC(F)(F)CN1; Hyp = O=C(O)[C@@H]1C[C@@H](O)CN1; NMeD = CN[C@@H](CC(=O)O)C(=O)O; NMeL = CN[C@@H](CC(C)C)C(=O)O; N(Me)CH2CH2OMe = COCCN(C)*; Morpholide = C1CN(*)CCO1; Ac5c = NC1(C(=O)O)CCCC1; Aze = O=C(O)[C@@H]1CCN1; Ac4c = NC1(C(=O)O)CCC1; NEtG = CCNCC(=O)O; Sar = CNCC(=O)O

Experiments:
[1] = biological target: GDP-bound HRAS wild-type protein (Homo sapiens, UniProt P01112); assay: Binding to HRAS by surface plasmon resonance (SPR), Single Cycle Kinetics; settings: KD ratio HRAS/KRAS, SPR
Sequence of GDP-bound HRAS wild-type protein (P01112 whole entry): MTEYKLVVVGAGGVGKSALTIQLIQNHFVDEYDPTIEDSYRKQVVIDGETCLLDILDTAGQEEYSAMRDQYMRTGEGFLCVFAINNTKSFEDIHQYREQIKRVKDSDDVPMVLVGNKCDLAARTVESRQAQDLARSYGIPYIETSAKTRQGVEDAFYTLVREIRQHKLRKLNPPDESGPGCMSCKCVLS

[2] = biological target: GDP-bound NRAS wild-type protein (Homo sapiens, UniProt P01111); assay: Binding to NRAS by surface plasmon resonance (SPR), Single Cycle Kinetics; settings: KD ratio NRAS/KRAS, SPR
Sequence of GDP-bound NRAS wild-type protein (P01111 whole entry): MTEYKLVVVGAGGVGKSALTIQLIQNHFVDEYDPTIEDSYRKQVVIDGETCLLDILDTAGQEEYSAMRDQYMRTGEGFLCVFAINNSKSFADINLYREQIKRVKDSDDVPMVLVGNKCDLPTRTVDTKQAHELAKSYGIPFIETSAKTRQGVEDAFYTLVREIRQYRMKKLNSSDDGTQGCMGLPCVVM

Row | SMILES | HRAS/KRAS (ratio of KD for GDP-bound HRAS wild-type to KD for KRAS) [1] | NRAS/KRAS (ratio of KD for GDP-bound NRAS wild-type to KD for KRAS) [2]
1 | CCCN1C(=O)[C@@H]2CCN2C(=O)CN(C)C(=O)[C@H]([C@@H](C)CC)NC(=O)[C@H](CC(C)C)N(C)C(=O)C[C@@H](C(=O)N(C)C)NC(=O)[C@H](C2CCCC2)N(C)C(=O)C2(CCCC2)NC(=O)[C@@H]2CC(F)(F)CN2C(=O)[C@H](CCc2ccc(C(F)(F)F)c(Cl)c2)NC(=O)CN(C)C(=O)[C@@H]1Cc1ccc(C(F)(F)F)cc1 [PP0387] ([NMeL]I[Sar][Aze][NPrPhe(4-CF3)][Sar][hPhe(3-Cl-4-CF3)][Pro(4,4-F2)][Ac5c][NMeGly(cPent)]D-NMe2; lactam N-11) | B (a compound having 3 or more and less than 10 is denoted as B) | C (A compound having a KD ratio of 0.1 or more and less than 3 is denoted as C)
2 | CCCN1C(=O)[C@@H]2CCN2C(=O)CN(C)C(=O)[C@H]([C@@H](C)CC)NC(=O)[C@H](CC(C)C)N(C)C(=O)C[C@@H](C(=O)N(C)C)NC(=O)[C@H](C2CCCC2)N(C)C(=O)C2(CCC2)NC(=O)[C@@H]2CC(F)(F)CN2C(=O)[C@H](CCc2ccc(C(F)(F)F)c(Cl)c2)NC(=O)CN(C)C(=O)[C@@H]1Cc1ccc(C(F)(F)F)cc1 [PP0388] ([NMeL]I[Sar][Aze][NPrPhe(4-CF3)][Sar][hPhe(3-Cl-4-CF3)][Pro(4,4-F2)][Ac4c][NMeGly(cPent)]D-NMe2; lactam N-11) | B (a compound having 3 or more and less than 10 is denoted as B) | C (A compound having a KD ratio of 0.1 or more and less than 3 is denoted as C)
3 | CCCN1C(=O)[C@@H]2CCN2C(=O)CN(C)C(=O)[C@H]([C@@H](C)CC)NC(=O)[C@H](CC(C)C)N(C)C(=O)C[C@@H](C(=O)N(C)C)NC(=O)[C@H](C2CCCC2)N(C)C(=O)C2(CCCC2)NC(=O)[C@@H]2C[C@@H](OCC)CN2C(=O)[C@H](CCc2ccc(C(F)(F)F)c(Cl)c2)NC(=O)CN(C)C(=O)[C@@H]1Cc1ccc(C(F)(F)F)cc1 [PP0389] ([NMeL]I[Sar][Aze][NPrPhe(4-CF3)][Sar][hPhe(3-Cl-4-CF3)][Hyp](Et)[Ac5c][NMeGly(cPent)]D-NMe2; lactam N-11) | B (a compound having 3 or more and less than 10 is denoted as B) | C (A compound having a KD ratio of 0.1 or more and less than 3 is denoted as C)
4 | CCCN1C(=O)[C@@H]2CCN2C(=O)CN(C)C(=O)[C@H]([C@@H](C)CC)NC(=O)[C@H](CC(C)C)N(C)C(=O)C[C@@H](C(=O)N(C)C)NC(=O)[C@H](C2CCCC2)N(C)C(=O)C2(CCC2)NC(=O)[C@@H]2C[C@@H](OCC)CN2C(=O)[C@H](CCc2ccc(C(F)(F)F)c(Cl)c2)NC(=O)CN(C)C(=O)[C@@H]1Cc1ccc(C(F)(F)F)cc1 [PP0390] ([NMeL]I[Sar][Aze][NPrPhe(4-CF3)][Sar][hPhe(3-Cl-4-CF3)][Hyp](Et)[Ac4c][NMeGly(cPent)]D-NMe2; lactam N-11) | B (a compound having 3 or more and less than 10 is denoted as B) | C (A compound having a KD ratio of 0.1 or more and less than 3 is denoted as C)
5 | CCCN1C(=O)CN(C)C(=O)CN(C)C(=O)[C@H]([C@@H](C)CC)NC(=O)[C@H](CC(C)C)N(C)C(=O)C[C@@H](C(=O)N(C)CCOC)N(C)C(=O)[C@H](C2CCCC2)N(C)C(=O)C2(CCCC2)NC(=O)[C@@H]2CCCN2C(=O)[C@H](CCc2ccc(C(F)(F)F)c(Cl)c2)NC(=O)CN(C)C(=O)[C@@H]1Cc1ccc(C(F)(F)F)cc1 [PP0391] ([NMeL]I[Sar][Sar][NPrPhe(4-CF3)][Sar][hPhe(3-Cl-4-CF3)]P[Ac5c][NMeGly(cPent)][NMeD]-{N(Me)CH2CH2OMe}; lactam N-11) | B (a compound having 3 or more and less than 10 is denoted as B) | B (a compound having 3 or more and less than 10 is denoted as B)
6 | CCCN1C(=O)CN(C)C(=O)CN(C)C(=O)[C@H]([C@@H](C)CC)NC(=O)[C@H](CC(C)C)N(C)C(=O)C[C@@H](C(=O)N2CCOCC2)N(C)C(=O)[C@H](C2CCCC2)N(C)C(=O)C2(CCC2)NC(=O)[C@@H]2C[C@@H](OCC)CN2C(=O)[C@H](CCc2ccc(C(F)(F)F)c(Cl)c2)NC(=O)CN(C)C(=O)[C@@H]1Cc1ccc(C(F)(F)F)cc1 [PP0392] ([NMeL]I[Sar][Sar][NPrPhe(4-CF3)][Sar][hPhe(3-Cl-4-CF3)][Hyp](Et)[Ac4c][NMeGly(cPent)][NMeD]-Morpholide; lactam N-11) | C (A compound having a KD ratio of 0.1 or more and less than 3 is denoted as C) | B (a compound having 3 or more and less than 10 is denoted as B)
7 | CCCN1C(=O)CN(C)C(=O)CNC(=O)[C@H]([C@@H](C)CC)NC(=O)[C@H](CC(C)C)N(C)C(=O)C[C@@H](C(=O)N2CCOCC2)N(C)C(=O)[C@H](C2CCCC2)N(C)C(=O)C2(CCC2)NC(=O)[C@@H]2CCCN2C(=O)[C@H](CCc2ccc(C(F)(F)F)c(Cl)c2)NC(=O)CN(C)C(=O)[C@@H]1Cc1ccc(C(F)(F)F)cc1 [PP0393] ([NMeL]IG[Sar][NPrPhe(4-CF3)][Sar][hPhe(3-Cl-4-CF3)]P[Ac4c][NMeGly(cPent)][NMeD]-Morpholide; lactam N-11) | B (a compound having 3 or more and less than 10 is denoted as B) | B (a compound having 3 or more and less than 10 is denoted as B)
8 | CCCN1C(=O)CN(C)C(=O)CNC(=O)[C@H]([C@@H](C)CC)NC(=O)[C@H](CC(C)C)N(C)C(=O)C[C@@H](C(=O)N2CCOCC2)N(C)C(=O)[C@H](C2CCCC2)N(C)C(=O)C2(CCCC2)NC(=O)[C@@H]2CC(F)(F)CN2C(=O)[C@H](CCc2ccc(C(F)(F)F)c(Cl)c2)NC(=O)CN(C)C(=O)[C@@H]1Cc1ccc(C(F)(F)F)cc1 [PP0394] ([NMeL]IG[Sar][NPrPhe(4-CF3)][Sar][hPhe(3-Cl-4-CF3)][Pro(4,4-F2)][Ac5c][NMeGly(cPent)][NMeD]-Morpholide; lactam N-11) | C (A compound having a KD ratio of 0.1 or more and less than 3 is denoted as C) | C (A compound having a KD ratio of 0.1 or more and less than 3 is denoted as C)
9 | CCCN1C(=O)CN(C)C(=O)CNC(=O)[C@H]([C@@H](C)CC)NC(=O)[C@H](CC(C)C)N(C)C(=O)C[C@@H](C(=O)N2CCOCC2)N(C)C(=O)[C@H](C2CCCC2)N(C)C(=O)C2(CCC2)NC(=O)[C@@H]2CC(F)(F)CN2C(=O)[C@H](CCc2ccc(C(F)(F)F)c(Cl)c2)NC(=O)CN(C)C(=O)[C@@H]1Cc1ccc(C(F)(F)F)cc1 [PP0395] ([NMeL]IG[Sar][NPrPhe(4-CF3)][Sar][hPhe(3-Cl-4-CF3)][Pro(4,4-F2)][Ac4c][NMeGly(cPent)][NMeD]-Morpholide; lactam N-11) | C (A compound having a KD ratio of 0.1 or more and less than 3 is denoted as C) | B (a compound having 3 or more and less than 10 is denoted as B)
10 | CCCN1C(=O)CN(C)C(=O)CNC(=O)[C@H]([C@@H](C)CC)NC(=O)[C@H](CC(C)C)N(C)C(=O)C[C@@H](C(=O)N2CCOCC2)N(C)C(=O)[C@H](C2CCCC2)N(C)C(=O)C2(CCCC2)NC(=O)[C@@H]2C[C@@H](OCC)CN2C(=O)[C@H](CCc2ccc(C(F)(F)F)c(Cl)c2)NC(=O)CN(C)C(=O)[C@@H]1Cc1ccc(C(F)(F)F)cc1 [PP0396] ([NMeL]IG[Sar][NPrPhe(4-CF3)][Sar][hPhe(3-Cl-4-CF3)][Hyp](Et)[Ac5c][NMeGly(cPent)][NMeD]-Morpholide; lactam N-11) | C (A compound having a KD ratio of 0.1 or more and less than 3 is denoted as C) | B (a compound having 3 or more and less than 10 is denoted as B)
11 | CCCN1C(=O)CN(C)C(=O)CNC(=O)[C@H]([C@@H](C)CC)NC(=O)[C@H](CC(C)C)N(C)C(=O)C[C@@H](C(=O)N2CCOCC2)N(C)C(=O)[C@H](C2CCCC2)N(C)C(=O)C2(CCC2)NC(=O)[C@@H]2C[C@@H](OCC)CN2C(=O)[C@H](CCc2ccc(C(F)(F)F)c(Cl)c2)NC(=O)CN(C)C(=O)[C@@H]1Cc1ccc(C(F)(F)F)cc1 [PP0397] ([NMeL]IG[Sar][NPrPhe(4-CF3)][Sar][hPhe(3-Cl-4-CF3)][Hyp](Et)[Ac4c][NMeGly(cPent)][NMeD]-Morpholide; lactam N-11) | C (A compound having a KD ratio of 0.1 or more and less than 3 is denoted as C) | C (A compound having a KD ratio of 0.1 or more and less than 3 is denoted as C)
12 | CCCN1C(=O)CN(C)C(=O)CN(CC)C(=O)[C@H]([C@@H](C)CC)NC(=O)[C@H](CC(C)C)N(C)C(=O)C[C@@H](C(=O)N2CCOCC2)N(C)C(=O)[C@H](C2CCCC2)N(C)C(=O)C2(CCC2)NC(=O)[C@@H]2CCCN2C(=O)[C@H](CCc2ccc(C(F)(F)F)c(Cl)c2)NC(=O)CN(C)C(=O)[C@@H]1Cc1ccc(C(F)(F)F)cc1 [PP0398] ([NMeL]I[NEtG][Sar][NPrPhe(4-CF3)][Sar][hPhe(3-Cl-4-CF3)]P[Ac4c][NMeGly(cPent)][NMeD]-Morpholide; lactam N-11) | C (A compound having a KD ratio of 0.1 or more and less than 3 is denoted as C) | B (a compound having 3 or more and less than 10 is denoted as B)
13 | CCCN1C(=O)CN(C)C(=O)CN(CC)C(=O)[C@H]([C@@H](C)CC)NC(=O)[C@H](CC(C)C)N(C)C(=O)C[C@@H](C(=O)N2CCOCC2)N(C)C(=O)[C@H](C2CCCC2)N(C)C(=O)C2(CCCC2)NC(=O)[C@@H]2CC(F)(F)CN2C(=O)[C@H](CCc2ccc(C(F)(F)F)c(Cl)c2)NC(=O)CN(C)C(=O)[C@@H]1Cc1ccc(C(F)(F)F)cc1 [PP0399] ([NMeL]I[NEtG][Sar][NPrPhe(4-CF3)][Sar][hPhe(3-Cl-4-CF3)][Pro(4,4-F2)][Ac5c][NMeGly(cPent)][NMeD]-Morpholide; lactam N-11) | C (A compound having a KD ratio of 0.1 or more and less than 3 is denoted as C) | B (a compound having 3 or more and less than 10 is denoted as B)
